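Grown in 96-well plates, cells were treated for 48 hours with each compound at five concentrations. Insufficient inhibition: endpoint recorded as highest concentration tested. TGI is the concentration that stops growth completely.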
Assays:
Experiment in all cases: growth of human tumour cells (NCI), 48 h
UACC-257 melanoma = test system: UACC-257 melanoma
OVCAR-5 ovarian = test system: OVCAR-5 ovarian
RXF 393 renal = test system: RXF 393 renal
BT-549 breast = test system: BT-549 breast
M14 melanoma = test system: M14 melanoma
HL-60(TB) leukemia = test system: HL-60(TB) leukemia
UO-31 renal = test system: UO-31 renal
MDA-N = test system: MDA-N
SK-OV-3 ovarian = test system: SK-OV-3 ovarian
ACHN renal = test system: ACHN renal
NCI-H460 lung = test system: NCI-H460 lung
HT29 colon = test system: HT29 colon
MCF7 breast = test system: MCF7 breast
MALME-3M melanoma = test system: MALME-3M melanoma
SF-295 CNS = test system: SF-295 CNS
K-562 leukemia = test system: K-562 leukemia
786-0 renal = test system: 786-0 renal
OVCAR-3 ovarian = test system: OVCAR-3 ovarian
A498 renal = test system: A498 renal
KM12 colon = test system: KM12 colon
HOP-92 NSCLC = test system: HOP-92 NSCLC
NCI-H23 lung = test system: NCI-H23 lung
MDA-MB-435 = test system: MDA-MB-435
TK-10 renal = test system: TK-10 renal
OVCAR-8 ovarian = test system: OVCAR-8 ovarian
HCC-2998 colon = test system: HCC-2998 colon
HOP-62 NSCLC = test system: HOP-62 NSCLC
SR leukemia = test system: SR leukemia
MOLT-4 leukemia = test system: MOLT-4 leukemia
SK-MEL-5 melanoma = test system: SK-MEL-5 melanoma
SK-MEL-28 melanoma = test system: SK-MEL-28 melanoma
RPMI-8226 leukemia = test system: RPMI-8226 leukemia
SNB-75 CNS = test system: SNB-75 CNS
MDA-MB-231 breast = test system: MDA-MB-231 breast
LOX IMVI melanoma = test system: LOX IMVI melanoma
IGROV1 ovarian = test system: IGROV1 ovarian
SW-620 colon = test system: SW-620 colon
DU-145 prostate = test system: DU-145 prostate
HCT-116 colon = test system: HCT-116 colon
NCI-H226 lung = test system: NCI-H226 lung
SNB-19 CNS = test system: SNB-19 CNS
SF-268 CNS = test system: SF-268 CNS
U251 CNS = test system: U251 CNS
CCRF-CEM leukemia = test system: CCRF-CEM leukemia
HS 578T breast = test system: HS 578T breast
A549 NSCLC = test system: A549 NSCLC
T-47D breast = test system: T-47D breast
EKVX NSCLC = test system: EKVX NSCLC
SN12C renal = test system: SN12C renal
SF-539 CNS = test system: SF-539 CNS
HCT-15 colon = test system: HCT-15 colon
PC-3 prostate = test system: PC-3 prostate
SK-MEL-2 melanoma = test system: SK-MEL-2 melanoma
UACC-62 melanoma = test system: UACC-62 melanoma
NCI/ADR-RES ovarian = test system: NCI/ADR-RES ovarian
NCI-H522 lung = test system: NCI-H522 lung
CAKI-1 renal = test system: CAKI-1 renal
OVCAR-4 ovarian = test system: OVCAR-4 ovarian
COLO 205 colon = test system: COLO 205 colon

Work on `CC(C)(C)OC(=O)N1CCCC1=O` yielded a TGI (UACC-257 melanoma) greater than 10 µM, a TGI (OVCAR-5 ovarian) greater than 10 µM and a TGI (RXF 393 renal) greater than 10 µM. For the same compound, the TGI (BT-549 breast) was greater than 10 µM, the TGI (M14 melanoma) was greater than 10 µM and the TGI (HL-60(TB) leukemia) was greater than 10 µM. For the same compound, the TGI (UO-31 renal) was greater than 10 µM, the TGI (MDA-N) was greater than 10 µM and the TGI (SK-OV-3 ovarian) was greater than 10 µM. The TGI (ACHN renal) was greater than 10 µM, the TGI (NCI-H460 lung) was greater than 10 µM and the TGI (HT29 colon) was greater than 10 µM. For the same compound, the TGI (MCF7 breast) was greater than 10 µM, the TGI (MALME-3M melanoma) was greater than 10 µM and the TGI (SF-295 CNS) was greater than 10 µM. The TGI (K-562 leukemia) was greater than 10 µM, the TGI (786-0 renal) was greater than 10 µM and the TGI (OVCAR-3 ovarian) was greater than 10 µM. The TGI (A498 renal) was greater than 10 µM, the TGI (KM12 colon) was greater than 10 µM and the TGI (HOP-92 NSCLC) was greater than 10 µM. It also gave a TGI (NCI-H23 lung) greater than 10 µM, a TGI (MDA-MB-435) greater than 10 µM and a TGI (TK-10 renal) greater than 10 µM. It also gave a TGI (OVCAR-8 ovarian) greater than 10 µM, a TGI (HCC-2998 colon) greater than 10 µM and a TGI (HOP-62 NSCLC) greater than 10 µM. It also gave a TGI (SR leukemia) greater than 10 µM, a TGI (MOLT-4 leukemia) greater than 10 µM and a TGI (SK-MEL-5 melanoma) greater than 10 µM. The TGI (SK-MEL-28 melanoma) was greater than 10 µM, the TGI (RPMI-8226 leukemia) was greater than 10 µM and the TGI (SNB-75 CNS) was greater than 10 µM. For the same compound, the TGI (MDA-MB-231 breast) was greater than 10 µM, the TGI (LOX IMVI melanoma) was greater than 10 µM and the TGI (IGROV1 ovarian) was greater than 10 µM. It also gave a TGI (SW-620 colon) greater than 10 µM, a TGI (DU-145 prostate) greater than 10 µM and a TGI (HCT-116 colon) greater than 10 µM. The TGI (NCI-H226 lung) was greater than 10 µM, the TGI (SNB-19 CNS) was greater than 10 µM and the TGI (SF-268 CNS) was greater than 10 µM. It also gave a TGI (U251 CNS) greater than 10 µM, a TGI (CCRF-CEM leukemia) greater than 10 µM and a TGI (HS 578T breast) greater than 10 µM. It also gave a TGI (A549 NSCLC) greater than 10 µM, a TGI (T-47D breast) greater than 10 µM and a TGI (EKVX NSCLC) greater than 10 µM. The TGI (SN12C renal) was greater than 10 µM, the TGI (SF-539 CNS) was greater than 10 µM and the TGI (HCT-15 colon) was greater than 10 µM. The TGI (PC-3 prostate) was greater than 10 µM, the TGI (SK-MEL-2 melanoma) was greater than 10 µM and the TGI (UACC-62 melanoma) was greater than 10 µM.

`CNc1nc(SC)nc2c1c(N)nn2C` showed a TGI (UACC-257 melanoma) greater than 100 µM, a TGI (OVCAR-5 ovarian) greater than 100 µM and a TGI (RXF 393 renal) greater than 100 µM. The TGI (BT-549 breast) was greater than 100 µM, the TGI (M14 melanoma) was greater than 100 µM and the TGI (NCI/ADR-RES ovarian) was greater than 100 µM. The TGI (UO-31 renal) was greater than 100 µM, the TGI (NCI-H522 lung) was greater than 100 µM and the TGI (MDA-N) was greater than 100 µM. The TGI (SK-OV-3 ovarian) was greater than 100 µM, the TGI (ACHN renal) was greater than 100 µM and the TGI (NCI-H460 lung) was greater than 100 µM. For the same compound, the TGI (HT29 colon) was greater than 100 µM, the TGI (MALME-3M melanoma) was greater than 100 µM and the TGI (SF-295 CNS) was greater than 100 µM. It also gave a TGI (K-562 leukemia) greater than 100 µM, a TGI (786-0 renal) greater than 100 µM and a TGI (OVCAR-3 ovarian) greater than 100 µM. The TGI (A498 renal) was greater than 100 µM, the TGI (KM12 colon) was greater than 100 µM and the TGI (CAKI-1 renal) was greater than 100 µM. It also gave a TGI (HOP-92 NSCLC) greater than 100 µM, a TGI (NCI-H23 lung) greater than 100 µM and a TGI (MDA-MB-435) greater than 100 µM. It also gave a TGI (TK-10 renal) greater than 100 µM, a TGI (OVCAR-8 ovarian) greater than 100 µM and a TGI (HCC-2998 colon) greater than 100 µM. It also gave a TGI (HOP-62 NSCLC) greater than 100 µM, a TGI (MOLT-4 leukemia) greater than 100 µM and a TGI (SK-MEL-5 melanoma) greater than 100 µM. It also gave a TGI (SK-MEL-28 melanoma) greater than 100 µM, a TGI (OVCAR-4 ovarian) greater than 100 µM and a TGI (RPMI-8226 leukemia) greater than 100 µM. The TGI (SNB-75 CNS) was greater than 100 µM, the TGI (MDA-MB-231 breast) was greater than 100 µM and the TGI (LOX IMVI melanoma) was greater than 100 µM. It also gave a TGI (IGROV1 ovarian) greater than 100 µM, a TGI (SW-620 colon) greater than 100 µM and a TGI (DU-145 prostate) greater than 100 µM. For the same compound, the TGI (HCT-116 colon) was greater than 100 µM, the TGI (NCI-H226 lung) was greater than 100 µM and the TGI (SNB-19 CNS) was greater than 100 µM. For the same compound, the TGI (SF-268 CNS) was greater than 100 µM, the TGI (U251 CNS) was greater than 100 µM and the TGI (CCRF-CEM leukemia) was greater than 100 µM. The TGI (HS 578T breast) was greater than 100 µM, the TGI (A549 NSCLC) was greater than 100 µM and the TGI (COLO 205 colon) was greater than 100 µM. It also gave a TGI (T-47D breast) greater than 100 µM, a TGI (SN12C renal) greater than 100 µM and a TGI (HCT-15 colon) greater than 100 µM. It also gave a TGI (PC-3 prostate) greater than 100 µM, a TGI (SK-MEL-2 melanoma) greater than 100 µM and a TGI (UACC-62 melanoma) greater than 100 µM.

`NNC1=N/C(=C\c2ccccc2O)C(=O)N1` showed a TGI (UACC-257 melanoma) greater than 100 µM, a TGI (OVCAR-5 ovarian) greater than 100 µM and a TGI (RXF 393 renal) greater than 100 µM. It also gave a TGI (BT-549 breast) greater than 100 µM, a TGI (M14 melanoma) greater than 100 µM and a TGI (HL-60(TB) leukemia) of 49.6 µM. For the same compound, the TGI (NCI/ADR-RES ovarian) was greater than 100 µM, the TGI (UO-31 renal) was greater than 100 µM and the TGI (NCI-H522 lung) was greater than 100 µM. For the same compound, the TGI (MDA-N) was greater than 100 µM, the TGI (SK-OV-3 ovarian) was greater than 100 µM and the TGI (ACHN renal) was greater than 100 µM. For the same compound, the TGI (NCI-H460 lung) was greater than 100 µM, the TGI (HT29 colon) was greater than 100 µM and the TGI (MALME-3M melanoma) was greater than 100 µM. It also gave a TGI (SF-295 CNS) greater than 100 µM, a TGI (K-562 leukemia) greater than 100 µM and a TGI (786-0 renal) greater than 100 µM. For the same compound, the TGI (OVCAR-3 ovarian) was greater than 100 µM, the TGI (A498 renal) was greater than 100 µM and the TGI (KM12 colon) was greater than 100 µM. The TGI (CAKI-1 renal) was greater than 100 µM, the TGI (HOP-92 NSCLC) was greater than 100 µM and the TGI (NCI-H23 lung) was greater than 100 µM. It also gave a TGI (MDA-MB-435) greater than 100 µM, a TGI (TK-10 renal) greater than 100 µM and a TGI (OVCAR-8 ovarian) greater than 100 µM. For the same compound, the TGI (HOP-62 NSCLC) was greater than 100 µM, the TGI (MOLT-4 leukemia) was greater than 100 µM and the TGI (SK-MEL-5 melanoma) was greater than 100 µM. The TGI (SK-MEL-28 melanoma) was greater than 100 µM, the TGI (RPMI-8226 leukemia) was greater than 100 µM and the TGI (SNB-75 CNS) was greater than 100 µM. For the same compound, the TGI (MDA-MB-231 breast) was greater than 100 µM, the TGI (LOX IMVI melanoma) was greater than 100 µM and the TGI (IGROV1 ovarian) was greater than 100 µM. The TGI (SW-620 colon) was greater than 100 µM, the TGI (DU-145 prostate) was greater than 100 µM and the TGI (HCT-116 colon) was greater than 100 µM. It also gave a TGI (NCI-H226 lung) greater than 100 µM, a TGI (SNB-19 CNS) greater than 100 µM and a TGI (SF-268 CNS) greater than 100 µM. For the same compound, the TGI (U251 CNS) was greater than 100 µM, the TGI (CCRF-CEM leukemia) was 51.9 µM and the TGI (HS 578T breast) was greater than 100 µM. It also gave a TGI (A549 NSCLC) greater than 100 µM, a TGI (COLO 205 colon) of 77.3 µM and a TGI (T-47D breast) of 89.4 µM. For the same compound, the TGI (EKVX NSCLC) was greater than 100 µM, the TGI (SN12C renal) was greater than 100 µM and the TGI (SF-539 CNS) was greater than 100 µM. It also gave a TGI (HCT-15 colon) greater than 100 µM, a TGI (PC-3 prostate) greater than 100 µM and a TGI (SK-MEL-2 melanoma) greater than 100 µM. For the same compound, the TGI (UACC-62 melanoma) was greater than 100 µM.

Reference: PubChem BioAssay (NCI)
